Among the data in ChEMBL document CHEMBL1156654, “Antineoplastic agents. 552. Oxidation of combretastatin A-1: trapping the o-quinone intermediate considered the metabolic product of the corresponding phosphate prodrug” (2008) are EC50 and Activity values, retold here.

In brackets after ≈: the same amount, converted by molar mass.

Common to all, as to format: functional
The test system of one assay is P388. The assay can be described thus: Growth inhibition of mouse P388 cells. To be noted: read-out: ED50 (the source's name).
The nature of assay [1]: Antitumor activity against mouse MHEC5T cells xenografted in SCID mouse assessed as reduction in tumor blood flow at 100 mg/kg after 1 hrs. More on the design: scale not given: the % may be the effect or the level left.
Assay [2] can be described thus: Antitumor activity against mouse MHEC5T cells xenografted in SCID mouse assessed as reduction in tumor blood flow at 100 mg/kg after 24 hrs. More on the design: scale not given: the % may be the effect or the level left.
Assay [3] is described as follows: Antitumor activity against mouse MHEC5T cells xenografted in SCID mouse assessed as reduction in tumor blood flow at 100 mg/kg after 72 hrs. More on the design: scale not given: the % may be the effect or the level left.

`COc1cc2nc3c(/C=C\c4cc(OC)c(OC)c(OC)c4)ccc(OC)c3nc2cc1OC`: the EC50 in the assay with P388 amounted to 0.2 µg/mL (≈ 0.432 µM). For the compound `COc1cc(/C=C\c2ccc(OC)c3nc4ccccc4nc23)cc(OC)c1OC`, the EC50 in the assay on P388 was found to be 0.2 µg/mL (≈ 0.497 µM).

Consider `COc1cc(/C=C\c2ccc(OC)c(OP(=O)([O-])[O-])c2OP(=O)([O-])[O-])cc(OC)c1OC.[Na+].[Na+].[Na+].[Na+]`, for which the Activity was found to be 50% in assay [1], 90% in assay [2] and 27% in assay [3].
